Test results published in article PMC10143306, “Seven New Lobane Diterpenoids from the Soft Coral Lobophytum catalai” (Marine Drugs, 2023).
Where two headings read alike, the source gives them in different places.

Legend:
[1] = system: L-02 (normal human hepatocytes) cell line; assay: Cytotoxicity assay, SRB method, L-02; assay type: cell-based; details: Homo sapiens, Hepatocyte, Table S16, read-out: Inhibition rate (%); for inhibition at 30 µM: L-02, 30 μM
Description: (§1) Moreover, the cytotoxic activity of these isolated compounds (1–7) was evaluated against the human leukemia K562, normal human hepatocyte L-02, human pancreatic cancer ASPC-1, and human breast cancer MDA-MB-231 cell lines.
(§2) The MTT method was used to evaluate cytotoxicity against the K562 (human leukemia) cell line, and the SRB method was used to evaluate cytotoxicity against the L-02 (normal human hepatocytes), ASPC-1 (human pancreatic cancer), and MDA-MB-231 (human breast cancer) cell lines. As a positive control, Adriamycin (doxorubicin) was used.

[2] = Cytotoxicity assay, SRB method, L-02; assay type: cell-based, human; details: human, L-02 normal hepatocyte cells; L-02 cell line, SRB method; read-out: Cytotoxic activity (IC50)
Description: as §1, §2

[3] = Cytotoxicity assay, SRB method, MDA-MB-231; assay type: cell-based, human; details: human, MDA-MB-231 breast cancer cells; MDA-MB-231 cell line, SRB method; read-out: Cytotoxic activity (IC50)
Description: as §1, §2

[4] = system: MDA-MB-231 (human breast cancer) cell line; assay: Cytotoxicity assay, SRB method, MDA-MB-231; assay type: cell-based; details: Homo sapiens, Table S16, read-out: Inhibition rate (%); for inhibition at 30 µM: MDA-MB-231, 30 μM
Description: as §1, §2

[5] = Cytotoxicity assay, SRB method, ASPC-1; assay type: cell-based, human; details: human, ASPC-1 pancreatic cancer cells; ASPC-1 cell line, SRB method; read-out: Cytotoxic activity (IC50)
Description: as §1, §2

[6] = system: ASPC-1 (human pancreatic cancer) cell line; assay: Cytotoxicity assay, SRB method, ASPC-1; assay type: cell-based; details: Homo sapiens, ASPC1, Table S16, read-out: Inhibition rate (%); for inhibition at 30 µM: ASPC-1, 30 μM
Description: as §1, §2

[7] = Cytotoxicity assay, MTT method, K562; assay type: cell-based, human; details: human, K562 leukemia cells; K562 cell line, MTT method; read-out: Cytotoxic activity (IC50)
Description: as §1, §2

[8] = system: K562 (human leukemia) cell line; assay: Cytotoxicity assay, MTT method, K562; assay type: cell-based; details: Homo sapiens, read-out: Inhibition rate (%); for inhibition at 1 µM: K562, K562, 1 μM, positive control; for inhibition at 30 µM: K562, K562, 30 μM
Description: as §1, §2

[9] = system: CuSO4-induced transgenic fluorescent zebrafish (Tg: zlyz-EGFP); assay: Anti-inflammatory assay in CuSO4-induced transgenic fluorescent zebrafish (macrophage count around neuromasts); assay type: in vivo; details: for Number of macrophages around nerve mound (mean ± SEM): Table S15
Description: On account of the fact that research on the anti-inflammatory activity of lobane diterpenoids in zebrafish models has not been reported up to now, we attempted to identify lobane diterpenoids with anti-inflammatory activity in zebrafish models. The anti-inflammatory effect of compounds 1–7 was assessed in CuSO4-induced transgenic fluorescent zebrafish. CuSO4 can produce an intense acute inflammatory response in the neuromasts and mechanosensorial cells in the lateral line of zebrafish, stimulating the infiltration of macrophages. Thus, the number of macrophages surrounding the neuromasts in zebrafish can be observed and counted under a fluorescence microscope. Therefore, the anti-inflammatory activity of these lobane diterpenoids can be evaluated.
Figure 5 Anti-inflammatory assays of compounds 1–7. (a) Images of inflammatory sites in CuSO4-induced transgenic fluorescent zebrafish (Tg: zlyz-EGFP) expressing enhanced green fluorescent protein (EGFP) treated with compounds 1–7, using indomethacin as a positive control.
Healthy macrophage fluorescent transgenic zebrafish (Tg: zlyz-EGFP) were provided by the Biology Institute of Shandong Academy of Science (Jinan, China). The zebrafish maintenance and anti-inflammation assay were carried out as previously described. Each zebrafish larva was photographed using a fluorescence microscope (AXIO, Zom.V16), and the number of macrophages around the nerve mound was calculated using Image-Pro Plus 6.0 software (Rockville, MD, USA). One-way analysis of variance was conducted using GraphPad Prism 7.00 software (San Diego, CA, USA). Lobocatalens A–G (1–7) were tested for anti-inflammatory activities in the zebrafish models. Three dpf (days post-fertilization), healthy macrophage fluorescent transgenic zebrafish were used as animal models to evaluate the anti-inflammatory effects of compounds 1–7.

[10] = Danio rerio, Macrophage, 20 μM, Table S15, read-out: Inhibition rate

Question: For `COc1cccc2c1C(=O)c1c(O)c3c(c(O)c1C2=O)C[C@@](O)(C(=O)CO)C[C@@H]3O[C@H]1C[C@H](N)[C@H](O)[C@H](C)O1` [doxorubicin, reference compound], which inhibition at 1 µM ([1]; L-02, 1 μM, positive control) is on record?
Answer: 83%

Question: What about the IC50 [2] of the same molecule?
Answer: < 1 µM

Question: What about the IC50 [3] of the same molecule?
Answer: < 1 µM

Question: And the inhibition at 1 µM ([4]; MDA-MB-231, 1 μM, positive control)?
Answer: 55.9%

Question: And the IC50 [5]?
Answer: < 1 µM

Question: And the inhibition at 1 µM ([6]; ASPC-1, 1 μM, positive control)?
Answer: 52%

Question: What about the IC50 [7] of the same molecule?
Answer: < 1 µM

Question: And the inhibition at 1 µM ([8]; Table S16)?
Answer: 100%

Question: And the inhibition at 1 µM ([8]; Table S17)?
Answer: 100%

Question: Which “Number of macrophages around nerve mound (mean ± SEM)” value (from here on “Number … (mean ± SEM)”) ([9]; 40 μM, positive control) does the source give for `COc1ccc2c(c1)c(CC(=O)O)c(C)n2C(=O)c1ccc(Cl)cc1` [Indomethacin, reference compound] here?
Answer: 11.88 ± 1.575

Question: And the inhibition at 40 µM ([9]; Danio rerio, Macrophage, 40 μM, positive control, Table S15, read-out: Inhibition rate)?
Answer: 62.8%

Question: With `C=CC1(C)CCC(C(C)=CC(=O)CC(C)(C)O)CC1C(=C)C` (stereo not drawn) [Compound 4, Lobocatalen D] as the molecule, how does the inhibition at 30 µM [1] read?
Answer: 21.6%

Question: And the IC50 [2]?
Answer: > 30 µM

Question: What about the IC50 [3] of the same molecule?
Answer: > 30 µM

Question: And the inhibition at 30 µM [4]?
Answer: 18.4%

Question: And the IC50 [5]?
Answer: > 30 µM

Question: What about the inhibition at 30 µM [6] of the same molecule?
Answer: 18.9%

Question: What about the IC50 [7] of the same molecule?
Answer: > 30 µM

Question: And the inhibition at 30 µM ([8]; Table S16)?
Answer: 36.7%

Question: What about the “Number … (mean ± SEM)” value ([9]; 20 μM) of the same molecule?
Answer: 22.22 ± 2.737

Question: And the inhibition at 20 µM [9, 10]?
Answer: 30.3%

Question: What does the source list for `C=CC1(C)CCC(C2=CCC(C(C)(C)O)OC2O)CC1C(=C)C` (stereo not drawn) [Compound 2, Lobocatalen B]?
Answer: inhibition at 30 µM [1]: 30.2%; IC50 [2]: > 30 µM; IC50 [3]: > 30 µM; inhibition at 30 µM [4]: 24.2%; IC50 [7]: > 30 µM; inhibition at 30 µM ([8]; Table S16): 48.7%; Number of macrophages around nerve mound (mean ± SEM) ([9]; 20 μM): 30.00 ± 3.047; inhibition at 20 µM [9, 10]: 5.93%

Question: With `C=CC1(C)CCC(C(C)=CC=CC(C)=O)CC1C(=C)C` (stereo not drawn) [Compound 6, Lobocatalen F] as the molecule, how does the inhibition at 30 µM [1] read?
Answer: 25.4%

Question: And the IC50 [2]?
Answer: > 30 µM

Question: And the “Number … (mean ± SEM)” value ([9]; 20 μM)?
Answer: 26.2 ± 2.356

Question: What about the inhibition at 20 µM [9, 10] of the same molecule?
Answer: 17.8%

Question: With `C=CC1(C)CCC(C2=CCC3OC2OC3(C)C)CC1C(=C)C` (stereo not drawn) [Compound 1, Lobocatalen A] as the molecule, how does the inhibition at 30 µM [1] read?
Answer: 24.9%

Question: And the IC50 [2]?
Answer: > 30 µM

Question: And the IC50 [3]?
Answer: > 30 µM

Question: What about the inhibition at 30 µM [4] of the same molecule?
Answer: 21.9%

Question: What about the IC50 [7] of the same molecule?
Answer: > 30 µM

Question: What about the inhibition at 30 µM ([8]; Table S16) of the same molecule?
Answer: 39.9%

Question: What about the “Number … (mean ± SEM)” value ([9]; 20 μM) of the same molecule?
Answer: 25.67 ± 3.14

Question: What about the inhibition at 20 µM [9, 10] of the same molecule?
Answer: 19.5%

Question: For `C=CC1(C)CCC(C2=COC(C(C)(C)O)CC2=O)CC1C(=C)C` (stereo not drawn) [Compound 3, Lobocatalen C], which inhibition at 30 µM [1] is on record?
Answer: 22.1%

Question: And the IC50 [2]?
Answer: > 30 µM

Question: What about the IC50 [3] of the same molecule?
Answer: > 30 µM

Question: And the inhibition at 30 µM [4]?
Answer: 19.9%

Question: And the IC50 [5]?
Answer: > 30 µM

Question: What about the inhibition at 30 µM [6] of the same molecule?
Answer: 18.6%

Question: And the IC50 [7]?
Answer: > 30 µM

Question: And the inhibition at 30 µM ([8]; Table S16)?
Answer: 43.5%

Question: What about the “Number … (mean ± SEM)” value ([9]; 20 μM) of the same molecule?
Answer: 25.30 ± 1.904

Question: What about the inhibition at 20 µM [9, 10] of the same molecule?
Answer: 20.7%

Question: With `C=CC1(C)CCC(C(=C)CCC(=O)C(C)(C)O)CC1C(=C)C` (stereo not drawn) [Compound 5, Lobocatalen E] as the molecule, how does the IC50 [7] read?
Answer: > 30 µM

Question: What about the inhibition at 30 µM ([8]; Table S16) of the same molecule?
Answer: 34.3%

Question: What about the “Number … (mean ± SEM)” value ([9]; 20 μM) of the same molecule?
Answer: 21.89 ± 3.199

Question: And the inhibition at 20 µM [9, 10]?
Answer: 31.4%

Question: Which results are given for `C=CC1(C)CCC(C(=O)C=CC(OC(C)=O)C(C)(C)O)CC1C(=C)C` (stereo not drawn) [Compound 7, Lobocatalen G]?
Answer: inhibition at 30 µM [1]: 29.8%; IC50 [2]: > 30 µM; IC50 [3]: > 30 µM; inhibition at 30 µM [4]: 10.4%; IC50 [5]: > 30 µM; inhibition at 30 µM [6]: 17.5%; IC50 [7]: 28 µM; inhibition at 0.9375 µM ([8]; K562, K562, 0.9375 μM, Table S17): 5.87%; inhibition at 1.875 µM ([8]; K562, K562, 1.875 μM, Table S17): 9.55%; inhibition at 3.75 µM ([8]; K562, K562, 3.75 μM, Table S17): 11.6%; inhibition at 7.5 µM ([8]; K562, K562, 7.5 μM, Table S17): 15.5%; inhibition at 15 µM ([8]; K562, K562, 15 μM, Table S17): 21%; inhibition at 30 µM ([8]; Table S16): 63.5%; inhibition at 30 µM ([8]; Table S17): 73.3%; Number of macrophages around nerve mound (mean ± SEM) ([9]; 20 μM): 18.6 ± 1.805; Anti-inflammatory activity (in words) ([9]; 20 μM, migration and number of macrophages surrounding the neuromasts): moderate anti-inflammatory activity; inhibition at 20 µM [9, 10]: 41.7%
